# From ChEMBL document CHEMBL1155810, “Synthesis, structure-activity relationships, and biological profiles of a quinazolinone class of histamine H3 receptor inverse agonists” (J Med Chem, 2008)
# Active and inactive are the calls of the source. The calls are words filed in the database; no cut-off is given here.
# Columns and labels:
# [1] = target: Histamine H3 receptor (Homo sapiens, UniProt Q9Y5N1); experiment: Inverse agonist activity at human histamine H3 receptor expressed in CHO-K1 cells assessed as inhibition of N-alpha-methylhistamine-induced [35S]GTPgammaS binding; format: functional, cell-based
# Histamine H3 receptor (Homo sapiens, UniProt Q9Y5N1), sequence (Q9Y5N1 whole entry): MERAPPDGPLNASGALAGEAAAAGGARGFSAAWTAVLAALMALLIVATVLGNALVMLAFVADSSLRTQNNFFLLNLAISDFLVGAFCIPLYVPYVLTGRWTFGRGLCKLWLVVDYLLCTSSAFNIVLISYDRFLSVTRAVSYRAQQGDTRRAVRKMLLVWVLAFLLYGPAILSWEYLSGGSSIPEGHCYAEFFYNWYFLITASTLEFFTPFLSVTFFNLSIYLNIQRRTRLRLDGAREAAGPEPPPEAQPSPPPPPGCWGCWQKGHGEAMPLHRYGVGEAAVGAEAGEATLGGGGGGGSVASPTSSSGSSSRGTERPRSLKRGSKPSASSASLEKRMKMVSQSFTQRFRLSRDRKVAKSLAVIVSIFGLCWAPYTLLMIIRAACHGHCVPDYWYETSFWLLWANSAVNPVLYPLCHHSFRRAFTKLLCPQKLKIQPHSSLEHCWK
# [2] = target: Voltage-gated inwardly rectifying potassium channel KCNH2 (Homo sapiens, UniProt Q12809)
# Voltage-gated inwardly rectifying potassium channel KCNH2, sequence (Q12809 whole entry): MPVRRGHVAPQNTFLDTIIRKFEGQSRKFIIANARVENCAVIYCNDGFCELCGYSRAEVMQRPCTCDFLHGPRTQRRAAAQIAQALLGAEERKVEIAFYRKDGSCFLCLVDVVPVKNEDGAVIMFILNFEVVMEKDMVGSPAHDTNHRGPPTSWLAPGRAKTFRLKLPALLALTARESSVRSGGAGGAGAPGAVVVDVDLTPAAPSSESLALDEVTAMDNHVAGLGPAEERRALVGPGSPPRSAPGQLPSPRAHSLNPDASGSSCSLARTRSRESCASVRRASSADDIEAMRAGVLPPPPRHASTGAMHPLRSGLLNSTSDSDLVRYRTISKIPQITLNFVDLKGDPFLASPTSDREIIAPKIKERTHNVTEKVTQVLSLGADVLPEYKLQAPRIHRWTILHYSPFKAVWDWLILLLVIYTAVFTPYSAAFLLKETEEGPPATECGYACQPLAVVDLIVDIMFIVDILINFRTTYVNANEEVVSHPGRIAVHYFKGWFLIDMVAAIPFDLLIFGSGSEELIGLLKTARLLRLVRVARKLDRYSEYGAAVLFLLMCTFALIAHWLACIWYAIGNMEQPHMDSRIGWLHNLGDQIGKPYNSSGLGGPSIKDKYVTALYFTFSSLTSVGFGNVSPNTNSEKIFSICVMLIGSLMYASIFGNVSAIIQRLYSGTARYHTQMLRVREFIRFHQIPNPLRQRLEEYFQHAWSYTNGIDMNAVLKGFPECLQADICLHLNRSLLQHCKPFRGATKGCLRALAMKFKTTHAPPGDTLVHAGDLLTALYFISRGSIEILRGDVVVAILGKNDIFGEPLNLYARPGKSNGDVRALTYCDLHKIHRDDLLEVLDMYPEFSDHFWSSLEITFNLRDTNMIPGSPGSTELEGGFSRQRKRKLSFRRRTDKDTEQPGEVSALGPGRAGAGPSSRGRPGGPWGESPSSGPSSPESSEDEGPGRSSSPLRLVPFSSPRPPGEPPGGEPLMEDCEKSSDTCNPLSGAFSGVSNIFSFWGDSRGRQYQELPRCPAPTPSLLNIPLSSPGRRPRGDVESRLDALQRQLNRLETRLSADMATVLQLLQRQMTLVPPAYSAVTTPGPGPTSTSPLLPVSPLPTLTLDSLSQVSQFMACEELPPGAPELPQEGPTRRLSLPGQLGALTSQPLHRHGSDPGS
# [3] = Ratio of drug level in Sprague-Dawley rat brain to plasma; format: ADME; conditions: read-out: BPR
# [4] = Plasma clearance in Sprague-Dawley rat at 1 mg/kg, iv; format: ADME, organism-based; set-up: dose 1 mg/kg, route intravenous
# [5] = AUC (0 to infinity) in Beagle dog at 3 mg/kg, po; format: ADME, organism-based, Canis lupus familiaris; set-up: time infinity, dose 3 mg/kg, route oral; conditions: plasma
# [6] = Ratio of drug level in wild type MDR1a-proficient CF1 mouse brain to plasma at 10 mg/kg, po after 2 hrs; format: ADME, organism-based; set-up: dose 10 mg/kg, route oral; conditions: read-out: BPR
# [7] = organism: Mus musculus; experiment: Ex vivo receptor occupancy of […] histamine H3 receptor in MDR1a-deficient CF1 mouse plasma; format: functional
# [8] = Plasma concentration in Sprague-Dawley rat at 10 mg/kg, po after 2 hrs; format: ADME, organism-based; set-up: dose 10 mg/kg, route oral
# [9] = organism: Mus musculus; experiment: Ex vivo receptor occupancy of […] histamine H3 receptor in wild type MDR1a-proficient CF1 mouse brain; format: functional
# [10] = organism: Mus musculus; experiment: Ex vivo receptor occupancy of […] histamine H3 receptor in wild type MDR1a-proficient CF1 mouse plasma; format: functional
# [11] = Plasma clearance in rhesus monkey at 1 mg/kg, iv; format: ADME, organism-based, Macaca mulatta; set-up: dose 1 mg/kg, route intravenous
# [12] = target: T1, Cytochrome P450 1A2 (Homo sapiens, UniProt P05177); experiment: Inhibition of CYP1A2; format: ADME
# T1 sequence (P05177 whole entry): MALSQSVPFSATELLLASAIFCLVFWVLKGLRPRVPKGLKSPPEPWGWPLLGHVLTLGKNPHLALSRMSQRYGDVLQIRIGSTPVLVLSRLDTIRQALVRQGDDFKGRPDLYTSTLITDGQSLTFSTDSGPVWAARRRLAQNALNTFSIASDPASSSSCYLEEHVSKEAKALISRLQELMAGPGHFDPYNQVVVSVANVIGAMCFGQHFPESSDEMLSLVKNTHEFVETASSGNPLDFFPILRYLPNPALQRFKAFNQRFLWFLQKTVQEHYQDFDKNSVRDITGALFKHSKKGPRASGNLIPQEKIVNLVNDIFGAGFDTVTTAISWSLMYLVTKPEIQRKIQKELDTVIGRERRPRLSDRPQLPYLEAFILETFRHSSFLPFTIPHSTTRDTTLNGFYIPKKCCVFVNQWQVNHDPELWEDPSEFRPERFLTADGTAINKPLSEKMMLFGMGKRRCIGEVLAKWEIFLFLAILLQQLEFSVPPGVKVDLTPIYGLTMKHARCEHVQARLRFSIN
# [13] = Oral bioavailability in rhesus monkey at 3 mg/kg; format: ADME, organism-based, Macaca mulatta; conditions: in vivo
# [14] = Half life in Sprague-Dawley rat at 1 mg/kg, iv; format: ADME, organism-based; set-up: dose 1 mg/kg, route intravenous; conditions: in vivo
# [15] = Ratio of drug level in MDR1a-deficient CF1 mouse brain to plasma at 10 mg/kg, po after 2 hrs; format: ADME, organism-based; set-up: dose 10 mg/kg, route oral; conditions: read-out: BPR
# [16] = Cmax in Beagle dog at 3 mg/kg, po; format: ADME, organism-based, Canis lupus familiaris; set-up: dose 3 mg/kg, route oral; conditions: in vivo
# [17] = target: Histamine H1 receptor (Homo sapiens, UniProt P35367); experiment: Inhibition of human histamine H1 receptor
# Histamine H1 receptor, sequence (P35367 whole entry): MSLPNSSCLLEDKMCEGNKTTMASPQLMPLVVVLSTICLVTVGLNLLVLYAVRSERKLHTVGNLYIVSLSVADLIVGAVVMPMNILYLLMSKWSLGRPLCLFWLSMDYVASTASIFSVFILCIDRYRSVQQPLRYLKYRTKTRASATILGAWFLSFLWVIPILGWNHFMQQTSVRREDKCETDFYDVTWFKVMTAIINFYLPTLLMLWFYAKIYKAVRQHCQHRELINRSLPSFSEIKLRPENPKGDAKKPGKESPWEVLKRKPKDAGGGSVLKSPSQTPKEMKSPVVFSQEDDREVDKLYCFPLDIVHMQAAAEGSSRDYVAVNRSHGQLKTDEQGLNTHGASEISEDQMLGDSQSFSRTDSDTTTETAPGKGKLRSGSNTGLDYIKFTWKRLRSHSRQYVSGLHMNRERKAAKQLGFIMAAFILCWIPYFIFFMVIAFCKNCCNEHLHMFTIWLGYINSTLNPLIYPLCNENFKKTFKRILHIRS
# [18] = AUC (0 to infinity) in rhesus monkey at 3 mg/kg, po; format: ADME, organism-based, Macaca mulatta; set-up: time infinity, dose 3 mg/kg, route oral; conditions: plasma
# [19] = test system: Rattus norvegicus; experiment: Ex vivo increase in receptor occupancy of histamine H3 receptor in Sprague-Dawley rat brain at 30 mg/kg, po by autoradiography; format: functional
# [20] = target: Cytochrome P450 2C9 (Homo sapiens, UniProt P11712); experiment: Inhibition of CYP2C9; format: ADME
# Cytochrome P450 2C9, sequence (P11712 whole entry): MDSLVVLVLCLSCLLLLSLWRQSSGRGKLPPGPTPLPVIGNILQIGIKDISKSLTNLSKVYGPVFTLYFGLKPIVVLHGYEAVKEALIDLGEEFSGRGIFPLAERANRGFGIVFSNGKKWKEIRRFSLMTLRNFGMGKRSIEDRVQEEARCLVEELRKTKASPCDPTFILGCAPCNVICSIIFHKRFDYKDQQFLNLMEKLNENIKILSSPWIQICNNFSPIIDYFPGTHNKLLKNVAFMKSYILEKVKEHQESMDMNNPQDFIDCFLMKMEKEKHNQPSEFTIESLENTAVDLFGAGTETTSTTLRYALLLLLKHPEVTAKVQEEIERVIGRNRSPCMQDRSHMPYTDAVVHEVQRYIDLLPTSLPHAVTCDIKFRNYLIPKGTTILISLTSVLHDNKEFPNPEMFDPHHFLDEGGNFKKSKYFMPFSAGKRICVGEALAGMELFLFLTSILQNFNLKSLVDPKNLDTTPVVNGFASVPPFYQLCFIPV
# [21] = target: Histamine H2 receptor (Homo sapiens, UniProt P25021); experiment: Inhibition of human histamine H2 receptor
# Histamine H2 receptor, sequence (P25021 whole entry): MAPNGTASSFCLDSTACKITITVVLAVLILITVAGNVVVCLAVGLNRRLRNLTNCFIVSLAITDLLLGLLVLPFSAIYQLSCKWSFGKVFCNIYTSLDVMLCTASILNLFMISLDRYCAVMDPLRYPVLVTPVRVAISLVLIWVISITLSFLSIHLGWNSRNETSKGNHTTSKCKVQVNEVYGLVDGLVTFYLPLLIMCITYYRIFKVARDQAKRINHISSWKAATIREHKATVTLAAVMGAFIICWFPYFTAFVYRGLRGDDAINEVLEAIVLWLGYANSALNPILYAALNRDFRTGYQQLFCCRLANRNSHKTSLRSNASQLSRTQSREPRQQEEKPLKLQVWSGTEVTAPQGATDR
# [22] = target: Cytochrome P450 3A4 (Homo sapiens, UniProt P08684); experiment: Inhibition of CYP3A4; format: ADME
# Cytochrome P450 3A4, sequence (P08684 whole entry): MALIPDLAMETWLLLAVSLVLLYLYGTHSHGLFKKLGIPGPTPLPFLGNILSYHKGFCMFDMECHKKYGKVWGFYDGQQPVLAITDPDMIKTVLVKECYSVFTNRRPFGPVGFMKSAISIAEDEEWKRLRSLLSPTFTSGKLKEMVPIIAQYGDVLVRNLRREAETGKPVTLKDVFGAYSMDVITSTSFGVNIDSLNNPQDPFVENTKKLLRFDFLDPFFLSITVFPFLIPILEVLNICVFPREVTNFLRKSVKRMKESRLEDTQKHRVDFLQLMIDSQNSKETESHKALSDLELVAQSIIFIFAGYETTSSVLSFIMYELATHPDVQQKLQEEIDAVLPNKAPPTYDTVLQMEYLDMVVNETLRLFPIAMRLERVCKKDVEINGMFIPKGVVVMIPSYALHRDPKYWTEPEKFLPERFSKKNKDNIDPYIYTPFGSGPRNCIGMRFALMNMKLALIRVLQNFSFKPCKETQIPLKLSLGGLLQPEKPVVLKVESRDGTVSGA
# [23] = target: Cytochrome P450 2D6 (Homo sapiens, UniProt P10635); experiment: Inhibition of CYP2D6; format: ADME
# Cytochrome P450 2D6, sequence (P10635 whole entry): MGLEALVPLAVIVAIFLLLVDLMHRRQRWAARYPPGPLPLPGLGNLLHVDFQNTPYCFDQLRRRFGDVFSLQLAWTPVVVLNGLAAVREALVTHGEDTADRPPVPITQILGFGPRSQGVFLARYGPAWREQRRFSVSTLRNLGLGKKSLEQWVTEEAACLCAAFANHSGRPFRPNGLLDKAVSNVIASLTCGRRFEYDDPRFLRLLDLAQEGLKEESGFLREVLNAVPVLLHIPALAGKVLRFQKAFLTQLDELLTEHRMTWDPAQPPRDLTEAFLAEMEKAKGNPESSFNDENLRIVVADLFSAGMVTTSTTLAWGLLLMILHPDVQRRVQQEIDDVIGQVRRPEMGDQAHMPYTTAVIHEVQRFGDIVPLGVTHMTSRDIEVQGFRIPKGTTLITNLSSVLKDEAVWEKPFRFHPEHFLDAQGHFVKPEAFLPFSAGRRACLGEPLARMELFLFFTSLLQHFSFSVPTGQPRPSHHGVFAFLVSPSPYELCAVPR
# [24] = Oral bioavailability in Sprague-Dawley rat at 3 mg/kg; format: ADME, organism-based; conditions: in vivo
# [25] = Volume of distribution at steady state in Sprague-Dawley rat at 1 mg/kg, iv; format: ADME, organism-based; set-up: dose 1 mg/kg, route intravenous; conditions: in vivo, read-out: Vdss
# [26] = target: T2, Cytochrome P450 2A6 (Homo sapiens, UniProt P11509); experiment: Inhibition of CYP2A6; format: ADME
# T2 sequence (P11509 whole entry): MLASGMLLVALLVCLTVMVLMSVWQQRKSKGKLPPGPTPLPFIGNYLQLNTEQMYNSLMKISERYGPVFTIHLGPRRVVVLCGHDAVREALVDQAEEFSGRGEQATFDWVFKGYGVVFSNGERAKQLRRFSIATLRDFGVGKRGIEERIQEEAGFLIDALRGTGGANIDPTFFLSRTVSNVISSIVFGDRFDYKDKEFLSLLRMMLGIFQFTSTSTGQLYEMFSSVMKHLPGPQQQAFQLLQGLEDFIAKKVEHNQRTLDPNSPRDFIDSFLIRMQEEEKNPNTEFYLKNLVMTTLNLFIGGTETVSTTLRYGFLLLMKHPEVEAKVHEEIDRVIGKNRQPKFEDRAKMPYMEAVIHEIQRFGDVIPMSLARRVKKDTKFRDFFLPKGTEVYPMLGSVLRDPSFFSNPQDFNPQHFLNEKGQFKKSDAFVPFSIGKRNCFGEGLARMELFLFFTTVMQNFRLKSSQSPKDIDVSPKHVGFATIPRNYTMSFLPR
# [27] = Volume of distribution at steady state in rhesus monkey at 1 mg/kg, iv; format: ADME, organism-based, Macaca mulatta; set-up: dose 1 mg/kg, route intravenous; conditions: in vivo, read-out: Vdss
# [28] = target: Histamine H4 receptor (Homo sapiens, UniProt Q9H3N8); experiment: Inhibition of human histamine H4 receptor
# Histamine H4 receptor, sequence (Q9H3N8 whole entry): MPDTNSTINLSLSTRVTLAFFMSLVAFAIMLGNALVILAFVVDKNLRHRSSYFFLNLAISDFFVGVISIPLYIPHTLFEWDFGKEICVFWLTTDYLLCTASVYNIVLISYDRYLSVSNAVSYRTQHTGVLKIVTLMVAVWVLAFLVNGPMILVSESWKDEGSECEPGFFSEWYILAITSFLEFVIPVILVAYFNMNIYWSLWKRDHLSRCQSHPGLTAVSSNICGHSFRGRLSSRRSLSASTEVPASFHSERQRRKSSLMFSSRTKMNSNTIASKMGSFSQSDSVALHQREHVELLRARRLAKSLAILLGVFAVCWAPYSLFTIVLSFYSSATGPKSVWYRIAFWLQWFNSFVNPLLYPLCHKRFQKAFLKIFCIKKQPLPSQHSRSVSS
# [29] = test system: Brain; experiment: Drug level in Sprague-Dawley rat brain at 10 mg/kg, po after 2 hrs; format: ADME, organism-based; set-up: dose 10 mg/kg, route oral; conditions: in vivo
# [30] = target: Histamine H3 receptor (Rattus norvegicus, UniProt Q9QYN8); experiment: Displacement of [3H]N-alpha-methylhistamine from rat histamine H3 receptor expressed in HEK293 cells coexpressed with CRE-beta-lactamase; format: cell-based
# [31] = target: Histamine receptor H3 (Macaca mulatta, UniProt Q865E1); experiment: Displacement of [3H]N-alpha-methylhistamine from rhesus monkey histamine H3 receptor expressed in HEK293T cells; format: cell-based, HEK-293T
# Histamine receptor H3, sequence (Q865E1 whole entry): as the sequence (Q9Y5N1 whole entry) above, with D148N, A240G, V282A, A289T, T290A, V300A, H442Q counted along it
# [32] = Volume of distribution at steady state in Beagle dog at 1 mg/kg, iv; format: ADME, organism-based, Canis lupus familiaris; set-up: dose 1 mg/kg, route intravenous; conditions: in vivo, read-out: Vdss
# [33] = organism: Mus musculus; experiment: Ex vivo receptor occupancy of […] histamine H3 receptor in MDR1a-deficient CF1 mouse brain; format: functional
# [34] = Oral bioavailability in Beagle dog at 3 mg/kg; format: ADME, organism-based, Canis lupus familiaris; conditions: in vivo
# [35] = Half life in rhesus monkey at 1 mg/kg, iv; format: ADME, organism-based, Macaca mulatta; set-up: dose 1 mg/kg, route intravenous; conditions: in vivo
# [36] = Cmax in rhesus monkey at 3 mg/kg, po; format: ADME, organism-based, Macaca mulatta; set-up: dose 3 mg/kg, route oral; conditions: in vivo
# [37] = target: Cytochrome P450 2C19 (Homo sapiens, UniProt P33261); experiment: Inhibition of CYP2C19; format: ADME
# Cytochrome P450 2C19, sequence (P33261 whole entry): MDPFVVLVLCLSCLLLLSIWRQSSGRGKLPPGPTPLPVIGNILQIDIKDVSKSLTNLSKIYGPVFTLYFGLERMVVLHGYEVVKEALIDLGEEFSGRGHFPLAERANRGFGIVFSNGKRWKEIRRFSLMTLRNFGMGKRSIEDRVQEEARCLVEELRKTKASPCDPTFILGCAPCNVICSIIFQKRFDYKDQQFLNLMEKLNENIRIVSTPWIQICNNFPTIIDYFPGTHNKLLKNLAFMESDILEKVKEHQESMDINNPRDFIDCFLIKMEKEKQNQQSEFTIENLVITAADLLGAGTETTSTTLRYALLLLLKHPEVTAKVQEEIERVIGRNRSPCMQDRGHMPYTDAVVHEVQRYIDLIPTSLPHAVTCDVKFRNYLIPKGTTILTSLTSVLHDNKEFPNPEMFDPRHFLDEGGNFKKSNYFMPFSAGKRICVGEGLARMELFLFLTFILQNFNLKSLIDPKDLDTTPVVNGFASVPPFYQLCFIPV
# [38] = test system: Rattus norvegicus; experiment: Effect on histamine release in Sprague-Dawley rat brain assessed as increase in tele-methylhistamine level at 30 mg/kg, po after 2 hrs; format: functional, organism-based; set-up: dose 30 mg/kg
# [39] = Plasma clearance in Beagle dog at 1 mg/kg, iv; format: ADME, organism-based, Canis lupus familiaris; set-up: dose 1 mg/kg, route intravenous
# [40] = AUC (0 to infinity) in Sprague-Dawley rat at 3 mg/kg, po; format: ADME, organism-based; set-up: time infinity, dose 3 mg/kg, route oral; conditions: plasma
# [41] = Half life in Beagle dog at 1 mg/kg, iv; format: ADME, organism-based, Canis lupus familiaris; set-up: dose 1 mg/kg, route intravenous; conditions: in vivo
# [42] = Cmax in Sprague-Dawley rat at 3 mg/kg, po; format: ADME, organism-based; set-up: dose 3 mg/kg, route oral; conditions: in vivo
smiles,measurement,setting,value
Cc1nc2ccccc2c(=O)n1-c1ccc(OCCCN2CCCCC2C)cc1 (configuration not stated),IC50,[1],11 nM
Cc1nc2ccccc2c(=O)n1-c1ccc(OCCCN2CCC[C@@H]2C)cc1,IC50,[1],2.2 nM
same,IC50,[2],6000 nM
CCN(CC)CCCOc1ccc(-n2c(C)nc3ccccc3c2=O)cc1,IC50,[1],33 nM
Cc1nc2ccccc2c(=O)n1-c1ccc(OCCCN2CCC[C@H]2C)cc1,IC50,[1],4.3 nM
same,IC50,[2],> 10000 nM
Cc1nc2ccccc2c(=O)n1-c1ccc(OCCCN2CCC(C)CC2)cc1,IC50,[1],23 nM
Cc1nc2ccccc2c(=O)n1-c1ccc(OCCCN2CC(C)CC(C)C2)cc1 (configuration not stated),IC50,[1],28 nM
Cc1nc2ccccc2c(=O)n1-c1ccc(OCCCN2CCCCCCC2)cc1,IC50,[1],10 nM
Cc1nc2ccccc2c(=O)n1-c1ccc(OCCCN2CCC(C)C2)cc1 (configuration not stated),IC50,[1],5.8 nM
same,IC50,[2],6400 nM
Cc1nc2ccccc2c(=O)n1-c1ccc(OCCCN2[C@H](C)CC[C@H]2C)cc1,IC50,[1],20 nM
Cc1nc2ccccc2c(=O)n1-c1ccc(OCCCN2CCC[C@@H](C)C2)cc1,IC50,[1],41 nM
Cc1nc2ccccc2c(=O)n1-c1ccc(OCCCN2CCCCC2)cc1,IC50,[1],3.1 nM
Cc1nc2cccc(C(F)(F)F)c2c(=O)n1-c1ccc(OCCCN2CCCC2)cc1 [MK-0249],Kp,[3],1.1
same,clearance,[4],12 mL/min/kg
same,AUC(0-inf),[5],11.8 µM·h
same,Kp at 2 h,[6],0.8
same,Occ90,[7],40 nM
same,concentration at 2 h,[8],1580 nM
same,Occ90,[9],2 nmol/g
same,Occ90,[10],1.17 µM
same,clearance,[11],18 mL/min/kg
same,IC50,[12],> 27000 nM
same,bioavailability,[13],28%
same,half-life,[14],5.5 h
same,Kp at 2 h,[15],14
same,Cmax,[16],1800 nM
same,IC50,[17],> 10000 nM
same,AUC(0-inf),[18],1.84 µM·h
same,Activity,[19],>90%
same,IC50,[20],> 21000 nM
same,IC50,[21],> 10000 nM
same,IC50,[22],> 27000 nM
same,IC50,[23],> 27000 nM
same,bioavailability,[24],65%
same,Vd,[25],4.4 L/kg
same,IC50,[26],> 27000 nM
same,Vd,[27],6 L/kg
same,IC50,[28],> 10000 nM
same,Drug uptake,[29],1.67 nmol/g
same,Ki,[30],33 nM
same,Ki,[31],4.3 nM
same,Vd,[32],9.7 L/kg
same,Occ90,[33],2 nmol/g
same,bioavailability,[34],> 100%
same,half-life,[35],5.4 h
same,Cmax,[36],440 nM
same,IC50,[37],> 27000 nM
same,Activity,[38],Active
same,clearance,[39],19 mL/min/kg
same,AUC(0-inf),[40],6.35 µM·h
same,half-life,[41],9.9 h
same,Cmax,[42],1010 nM
Cc1nc2ccccc2c(=O)n1-c1ccc(OCCCN2CCCCCC2)cc1,IC50,[1],1.6 nM
Cc1nc2ccccc2c(=O)n1-c1ccc(OCCCN2CCC[C@H](C)C2)cc1,IC50,[1],0.72 nM
same,IC50,[2],5300 nM
